Reference: PubChem BioAssay AID423 (Public Access to Neuroactive & Anticonvulsant Chemical …, 2006)
The source made the active and inactive calls.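 Rule for the calls: active = any mouse or rat spared a seizure in electric shock or chemically induced seizure tests, at any tested dose or timing; inactive = no animal spared a seizure in any test.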

System: mouse/rat MES, scMET, 6Hz seizure protection, qualitative
Assay: mouse and rat seizure model outcomes with toxicity – qualitative, MES, scMET, 6Hz, i.p. and oral, in vivo study, summary (AID 423)

Row | SMILES | outcome
1 | CCC1(C)CC(=O)NC1=O (stereo not given) | active; inactive
2 | CCCCC1C(=O)N(c2ccccc2)N(c2ccccc2)C1=O | active; inactive
3 | CCN(CC)CC(=O)Nc1c(C)cccc1C | active
4 | NC(=O)N1c2ccccc2C=Cc2ccccc21 | active
5 | COC(=O)Nc1nc2ccc(C(=O)c3ccccc3)cc2[nH]1 | active; inactive
6 | O=C1CN=C(c2ccccc2Cl)c2cc([N+](=O)[O-])ccc2N1 | active
7 | CC(=O)OCC[N+](C)(C)C | active; inactive
8 | O=C1CC2OCC=C3CN4CCC56c7ccccc7N1C5C2C3CC46 (stereo not given) | active; inactive
9 | CCC1(c2ccccc2)C(=O)NC(=O)NC1=O | active
10 | CC(C)[N+](C)(CCOC(=O)C1c2ccccc2Oc2ccccc21)C(C)C | active; inactive
